Molecular target: T1, ATP-sensitive inward rectifier potassium channel 1 (Homo sapiens, UniProt P48048)
T1 sequence (P48048 whole entry): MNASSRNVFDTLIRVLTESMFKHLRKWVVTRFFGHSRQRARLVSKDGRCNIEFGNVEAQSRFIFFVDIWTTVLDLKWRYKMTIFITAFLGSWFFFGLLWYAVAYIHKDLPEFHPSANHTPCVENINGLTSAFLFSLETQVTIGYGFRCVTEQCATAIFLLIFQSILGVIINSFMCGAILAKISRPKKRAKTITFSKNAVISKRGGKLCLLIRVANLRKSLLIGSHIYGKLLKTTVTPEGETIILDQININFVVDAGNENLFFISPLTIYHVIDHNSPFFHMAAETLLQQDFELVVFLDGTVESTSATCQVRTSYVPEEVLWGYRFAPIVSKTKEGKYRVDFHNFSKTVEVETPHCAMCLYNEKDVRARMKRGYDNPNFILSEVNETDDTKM
Experiment: Electrophysiology Assay
Conditions: pH 7.4; 37 °C
Experimental: Chinese hamster ovary cells stably expressing Kir1.1 channels were maintained in T-75 flasks in cell culture media in a humidified 10% CO2 incubator at 37 °C. Prior to an experiment, Kir1.1 expression was induced by overnight incubation with 1 mM sodium butyrate. […] After centrifugation, the cell pellet was resuspended in approximately 4.0 ml of bath solution and placed in the IonWorks instrument. The intracellular solution consisted of (in mM): 80 K gluconate, 40 KCl, 20 KF, 3.2 MgCl2, 3 EGTA, 5 Hepes, pH 7.

Cc1c([C@@H](O)CN2CCN(C[C@H](O)c3ccc4c(c3)CCS4(=O)=O)CC2)ccc2c1COC2=O [US9139585, 43B]
IC50: 95 nM

Reference: BindingDB's records for patent US9139585 (Merck Sharp & Dohme, 2015)
